Assay results: ChEMBL document CHEMBL5543109, “Novel β-Hairpin Antimicrobial Peptide Containing the β-Turn Sequence of -NG- and the Tryptophan Zippers Facilitate Self-Assembly into Nanofibers, Exhibiting Excellent Antimicrobial Performance” (J Med Chem, 2024)
Values after ≈ are worked out from the molar mass of the structure shown. Active and inactive are the calls of the source. The calls are words filed in the database; no cut-off is given here.

Legend:
Staphylococcus aureus [1] = assay: Antibacterial activity against Staphylococcus aureus ATCC 25923 incubated for 18 hrs by broth microdilution method; assay type: functional
Bacillus subtilis [2] = assay: Antibacterial activity against Bacillus subtilis ATCC 23857 incubated for 18 hrs by broth microdilution method; assay type: functional
Bacillus subtilis [3] = assay: Bactericidal activity against Bacillus subtilis ATCC 23857 incubated for 18 hrs by broth microdilution method; assay type: functional
[4] = tested on: Staphylococcus epidermidis; assay: Bactericidal activity against Staphylococcus epidermidis ATCC 12228 incubated for 18 hrs by broth microdilution method; assay type: functional
Erythrocyte = assay: Hemolytic activity in mouse erythrocytes assessed as concentration required to cause 10% hemolysis incubated for 1 hr; assay type: toxicity, cell-based
Pseudomonas aeruginosa [5] = assay: Antibacterial activity against Pseudomonas aeruginosa incubated for 18 hrs in presence of ZnCl2 by broth microdilution method; assay type: functional, organism-based
Staphylococcus aureus [6] = assay: Antibacterial activity against Staphylococcus aureus incubated for 18 hrs in presence of KCl by broth microdilution method; assay type: functional, organism-based
Staphylococcus aureus [7] = assay: Antibacterial activity against Staphylococcus aureus incubated for 18 hrs in presence of NH4Cl by broth microdilution method; assay type: functional, organism-based
Staphylococcus aureus [8] = assay: Antibacterial activity against Staphylococcus aureus incubated for 18 hrs in presence of FeCl3 by broth microdilution method; assay type: functional, organism-based
Staphylococcus aureus [9] = assay: Induction of morphological change in Staphylococcus aureus assessed as bacterial lysis at 2 times MIC incubated for 30 mins by SEM analysis; assay type: functional, organism-based
Pseudomonas aeruginosa [10] = assay: Induction of morphological change in Pseudomonas aeruginosa assessed as leakage of cellular contents at 2 times MIC incubated for 30 mins by SEM analysis; assay type: functional, organism-based
Cell membrane [11] = assay: Induction of cell membrane disruption in Escherichia coli assessed as PI uptake incubated for 2 hrs by PI staining based confocal laser scanning microscopy; assay type: cell membranes
Cell membrane [12] = assay: Induction of cell membrane disruption in Escherichia coli assessed as PI uptake at 4 times MIC incubated for 2 hrs by PI staining based flow cytometry analysis (reference value: 11.9%); assay type: cell membranes
Cell membrane [13] = assay: Induction of cell membrane disruption in Staphylococcus aureus assessed as PI uptake at 4 times MIC incubated for 2 hrs by PI staining based flow cytometry analysis (reference value: 15.9%); assay type: cell membranes
Staphylococcus aureus [14] = assay: Additive antibacterial activity against methicillin resistant Staphylococcus aureus assessed as fractional inhibitory concentration index incubated for 18 hrs in presence of ciprofloxacin by checkerboard assay; assay type: functional
Staphylococcus aureus [15] = assay: Additive antibacterial activity against Staphylococcus aureus assessed as fractional inhibitory concentration index incubated for 18 hrs in presence of ciprofloxacin by checkerboard assay; assay type: functional
Staphylococcus aureus [16] = assay: Synergistic antibacterial activity against methicillin resistant Staphylococcus aureus assessed as fractional inhibitory concentration index incubated for 18 hrs in presence of cefotaxime by checkerboard assay; assay type: functional
Staphylococcus aureus [17] = assay: Additive antibacterial activity against methicillin resistant Staphylococcus aureus 113 assessed as fractional inhibitory concentration index incubated for 18 hrs in presence of ciprofloxacin by checkerboard assay; assay type: functional
Staphylococcus aureus [18] = assay: Additive antibacterial activity against Staphylococcus aureus 125 assessed as fractional inhibitory concentration index incubated for 18 hrs in presence of ciprofloxacin by checkerboard assay; assay type: functional
Escherichia coli [19] = assay: Synergistic antibacterial activity against Escherichia coli assessed as fractional inhibitory concentration index incubated for 18 hrs in presence of rifampin by checkerboard assay; assay type: functional
Staphylococcus aureus [20] = assay: Synergistic antibacterial activity against rifampicin resistant Staphylococcus aureus assessed as fractional inhibitory concentration index incubated for 18 hrs in presence of rifampin by checkerboard assay; assay type: functional
Escherichia coli [21] = assay: Additive antibacterial activity against rifampicin resistant Escherichia coli assessed as fractional inhibitory concentration index incubated for 18 hrs in presence of rifampin by checkerboard assay; assay type: functional
Staphylococcus aureus [22] = assay: Additive antibacterial activity against methicillin resistant Staphylococcus aureus 75 assessed as fractional inhibitory concentration index incubated for 18 hrs in presence of streptomycin by checkerboard assay; assay type: functional
Staphylococcus aureus [23] = assay: Additive antibacterial activity against Staphylococcus aureus 794 assessed as fractional inhibitory concentration index incubated for 18 hrs in presence of streptomycin by checkerboard assay; assay type: functional
Escherichia coli [24] = assay: Antibacterial activity against kanamycin resistant Escherichia coli assessed as fractional inhibitory concentration index incubated for 18 hrs in presence of streptomycin by checkerboard assay; assay type: functional
Staphylococcus aureus [25] = assay: Additive antibacterial activity against Staphylococcus aureus 794 assessed as fractional inhibitory concentration index incubated for 18 hrs in presence of gentamycin by checkerboard assay; assay type: functional
Staphylococcus aureus [26] = assay: Synergistic antibacterial activity against Staphylococcus aureus 125 assessed as fractional inhibitory concentration index incubated for 18 hrs in presence of bacitracin by checkerboard assay; assay type: functional
[27] = Acute toxicity in mouse assessed as inflammatory cell infiltration in lung at 230.5 mg/kg, ip by H and E staining based assay; assay type: organism-based; settings: in vivo
Staphylococcus aureus [28] = assay: Antibacterial activity against Staphylococcus aureus ATCC 25923 infected in BALB/c mouse skin wound infection model assessed as reduction in wound bacterial load at 1 mg/ml, ip administered at 1 hr interval for total 6 treatment and measured after 1 hr post last dose; assay type: functional, organism-based; settings: time 7.0 hrs
Staphylococcus aureus [29] = assay: Antibacterial activity against Staphylococcus aureus 794 infected in BALB/c mouse skin wound infection model assessed as reduction in wound bacterial load at 1 mg/ml, ip administered at 1 hr interval for total 6 treatment and measured after 1 hr post last dose; assay type: functional, organism-based; settings: time 7.0 hrs
Staphylococcus aureus [30] = assay: Antibacterial activity against Staphylococcus aureus 794 infected in BALB/c mouse skin wound infection model assessed as reduction in wound bacterial load at 1 mg/ml, ip administered at 1 hr interval for total 6 treatment and measured after 1 hr post last dose in presence of vancomycin; assay type: functional, organism-based; settings: time 7.0 hrs
Staphylococcus aureus [31] = assay: Antibacterial activity against Staphylococcus aureus 794 infected in BALB/c mouse skin wound infection model assessed as reduction in TNFalpha level at 1 mg/ml, ip pre-infected with bacteria for 24 hrs followed by compound addition and measured after 13 days post infection in presence of vancomycin; assay type: functional, organism-based; settings: time 12.0 day
Staphylococcus aureus [32] = assay: Antibacterial activity against Staphylococcus aureus 794 infected in BALB/c mouse skin wound infection model assessed as wound healing at 1 mg/ml, ip pre-infected with bacteria for 24 hrs followed by compound addition and measured on day 4; assay type: functional, organism-based; settings: time 4.0 day
Staphylococcus aureus [33] = assay: Antibacterial activity against Staphylococcus aureus 794 infected in BALB/c mouse skin wound infection model assessed as reduction in wound area at 1 mg/ml, ip pre-infected with bacteria for 24 hrs followed by compound addition and measured on day 5; assay type: functional, organism-based; settings: time 5.0 day
Staphylococcus aureus [34] = assay: Antibacterial activity against Staphylococcus aureus 794 infected in BALB/c mouse skin wound infection model assessed as wound healing at 1 mg/ml, ip pre-infected with bacteria for 24 hrs followed by compound addition and measured on day 11; assay type: functional; settings: time 11 day
Staphylococcus aureus [35] = assay: Antibacterial activity against Staphylococcus aureus 794 infected in BALB/c mouse skin wound infection model assessed as reduction in wound area at 1 mg/ml, ip pre-infected with bacteria for 24 hrs followed by compound addition and measured on day 9 to 13; assay type: functional, organism-based; settings: time 9-13 day
[36] = Toxicity in BALB/c mouse infected with Staphylococcus aureus 794 assessed as epidermal layer thickness at 1 mg/ml, ip pre-infected with bacteria for 24 hrs followed by compound addition and measured after 13 days by H and E staining based histopathological analysis; assay type: organism-based; settings: in vivo, 312 h, time 13 day
Staphylococcus aureus [37] = assay: Antibacterial activity against kanamycin resistant Staphylococcus aureus assessed as fractional inhibitory concentration index incubated for 18 hrs in presence of kanamycin by checkerboard assay; assay type: functional
Staphylococcus aureus [38] = assay: Antibacterial activity against methicillin resistant Staphylococcus aureus 75 incubated for 18 hrs by broth microdilution method; assay type: functional

Question: Which MIC (Staphylococcus aureus [1]) does the source give for NCCCC[C@@H](NC(=O)[C@H](N)Cc1c[nH]c2ccccc12)C(=O)N[C@H](Cc1c[nH]c2ccccc12)C(=O)N[C@H](CCCCN)C(=O)N[C@H](Cc1c[nH]c2ccccc12)C(=O)N[C@@H](CC(N)=O)C(=O)NCC(=O)N[C@H](Cc1c[nH]c2ccccc12)C(=O)N[C@H](CCCCN)C(=O)N[C@H](Cc1c[nH]c2ccccc12)C(=O)N[C@H](CCCCN)C(=O)N[C@H](Cc1c[nH]c2ccccc12)C(N)=O here?
Answer: The MIC was 4 µM (≈ 7.27 µg/mL).

Question: What about the MIC (Bacillus subtilis [2]) of the same compound?
Answer: The MIC was 2 µM (≈ 3.64 µg/mL).

Question: And the MBC (Bacillus subtilis [3])?
Answer: Its MBC is 4 µM (≈ 7.27 µg/mL).

Question: And the MBC [4]?
Answer: The MBC was 4 µM (≈ 7.27 µg/mL).

Question: And the MHC (Erythrocyte)?
Answer: Its MHC is greater than 512 µM.

Question: What about the Activity (Pseudomonas aeruginosa [5]) of the same compound?
Answer: The Activity was “Active”.

Question: And the Activity (Staphylococcus aureus [6])?
Answer: The Activity was “Active”.

Question: What about the Activity (Staphylococcus aureus [7]) of the same compound?
Answer: Its Activity is “Active”.

Question: What about the Activity (Staphylococcus aureus [8]) of the same compound?
Answer: The Activity was “Active”.

Question: What about the Activity (Staphylococcus aureus [9]) of the same compound?
Answer: Its Activity is “Active”.

Question: What about the Activity (Pseudomonas aeruginosa [10]) of the same compound?
Answer: Its Activity is “Active”.

Question: What about the Activity (Cell membrane [11]) of the same compound?
Answer: Its Activity is “Dose-Dependent Effect”.

Question: What about the Activity (Cell membrane [12]) of the same compound?
Answer: Its Activity is 92.8%.

Question: And the Activity (Cell membrane [13])?
Answer: The Activity was 95.5%.

Question: What about the “fractional inhibitory concentration index (FICI)” value (Staphylococcus aureus [14]) of the same compound?
Answer: The value was 0.563.

Question: And the “fractional inhibitory concentration index (FICI)” value (Staphylococcus aureus [15])?
Answer: Its value is 1.

Question: And the “fractional inhibitory concentration index (FICI)” value (Staphylococcus aureus [16])?
Answer: Its value is 0.313.

Question: What about the “fractional inhibitory concentration index (FICI)” value (Staphylococcus aureus [17]) of the same compound?
Answer: The value was 1.

Question: And the “fractional inhibitory concentration index (FICI)” value (Staphylococcus aureus [18])?
Answer: The value was 1.

Question: What about the “fractional inhibitory concentration index (FICI)” value (Escherichia coli [19]) of the same compound?
Answer: Its value is 0.375.

Question: And the “fractional inhibitory concentration index (FICI)” value (Staphylococcus aureus [20])?
Answer: The value was 0.375.

Question: And the “fractional inhibitory concentration index (FICI)” value (Escherichia coli [21])?
Answer: The value was 0.563.

Question: What about the “fractional inhibitory concentration index (FICI)” value (Staphylococcus aureus [22]) of the same compound?
Answer: Its value is 0.75.

Question: And the “fractional inhibitory concentration index (FICI)” value (Staphylococcus aureus [23])?
Answer: Its value is 0.625.

Question: And the “fractional inhibitory concentration index (FICI)” value (Escherichia coli [24])?
Answer: The value was 0.188.

Question: What about the “fractional inhibitory concentration index (FICI)” value (Staphylococcus aureus [25]) of the same compound?
Answer: The value was 0.563.

Question: What about the “fractional inhibitory concentration index (FICI)” value (Staphylococcus aureus [26]) of the same compound?
Answer: The value was 0.5.

Question: And the Activity [27]?
Answer: The Activity was “Toxic”.

Question: And the Activity (Staphylococcus aureus [28])?
Answer: Its Activity is “Active”.

Question: And the Activity (Staphylococcus aureus [29])?
Answer: Its Activity is “Active”.

Question: What about the Activity (Staphylococcus aureus [30]) of the same compound?
Answer: The Activity was “Active”.

Question: What about the Activity (Staphylococcus aureus [31]) of the same compound?
Answer: Its Activity is “Active”.

Question: And the Activity (Staphylococcus aureus [32])?
Answer: Its Activity is “inactive”.

Question: And the Activity (Staphylococcus aureus [33])?
Answer: The Activity was “Active”.

Question: What about the Activity (Staphylococcus aureus [34]) of the same compound?
Answer: The Activity was 100%.

Question: What about the Activity (Staphylococcus aureus [35]) of the same compound?
Answer: The Activity was “Active”.

Question: And the Activity [36]?
Answer: The Activity was “Non-Toxic”.

Question: And the “fractional inhibitory concentration index (FICI)” value (Staphylococcus aureus [37])?
Answer: The value was 0.563.

Question: And the MIC (Staphylococcus aureus [38])?
Answer: Its MIC is 8 µM (≈ 14.5 µg/mL).
